Paper PMC7723321 (Nature chemical biology, 2020)

What was measured:
HIV-1 92UG037.8 Env = HIV-1 92UG037.8 Env (Human immunodeficiency virus type 1, UniProt Q70200); type: cell-based
2F5 Fab = type: binding
SIVmac251.30 Env = type: cell-based, SIV
HIV-1 Env pseudoviruses = type: cell-based
[1] = tested on: Envs from HIV-1 primary isolates of clade A, B, C and AG; type: cell-based

| Compound | inhibition activity/potency in the HIV-1 Env cell-cell fusion assay (in words) (HIV-1 92UG037.8 Env) | binding to 2F5 Fab by SPR (in words) (2F5 Fab) | inhibition of cell-cell fusion mediated by SIV Env, high expression level (SIVmac251.30 Env) | inhibition of cell-cell fusion mediated by SIV Env, low expression level (SIVmac251.30 Env) | inhibition of HIV-1 infectivity versus MuLV negative control (HIV-1 Env pseudoviruses) | cytotoxicity in TZM.bl cells (TZM.bl cells) | cytotoxicity by an assay measuring ATP concentration (293T cells) | inhibition of cell-cell fusion mediated by Envs of multiple primary HIV-1 isolates [1] |
| --- | --- | --- | --- | --- | --- | --- | --- | --- |
| Cc1cc(N)c2ccccc2n1 [4-aminoquinaldine] | no activity |  |  |  |  |  |  |  |
| Cc1cc(N)c2ccccc2[n+]1CCCCCCCCCC[n+]1c(C)cc(N)c2ccccc21 [dequalinium, quinolinium,1,1’-(1,10-decanediyl)-bis(4-amino-2-methyldiiodide)] |  | no binding | resistant | inhibited | much greater inhibition | more cytotoxicity than in the cell-cell fusion assay | minimal level of cytotoxicity | specifically inhibited |
